In US10611765B2, “Pyrrolopyrimidine derivatives as Mps1/TTK kinase inhibitors” (Ohio State Innovation Foundation, priority 2014, dated 2020):

What was measured:
[1] = test system: BT-549; test: MTS anti-proliferative assay, BT-549; format: cell-based; details: Homo sapiens, 168 h, BT-549, TNBC, basal B, treatment for 7 days
Experimental: (§1) The anti-proliferative effects and IC50 values of the compounds in the BC cell line panel were determined by MTS assay.
The cells, except Sk-Br-3, AU565 and BT-474 were maintained in a mixture of Dulbecco's modified Eagle's medium and Ham's F12 medium (1:1) (DMEM/F12) without phenol red supplemented with 5% fetal bovine serum (FBS) and 1× antibiotic-antimycotic (100 U/mL penicillin G sodium, 100 μg/mL streptomycin sulfate and 0.25 μg/mL amphotericin B) and were plated separately in flasks in a humidified incubator (5% CO2: 95% air, 37° C.). The media used for Sk-Br-3, AU565 and BT-474 cell lines was described in (1) Brueggemeier et al., J. Steroid Biochem. Mol. Biol., 2005; 95:129-136; and (2) Diaz-Cruz et al., J. Clin. Endocrinol. Metab., 2005; 90:2563-2570. The media were changed every 2-days. When the cells grew to about 80% confluence, cells were washed twice with calcium- and magnesium-free phosphate-buffered saline (PBS, pH 7.4), and then trypsinized with 0.05% trypsin-5.3 mm EDTA. The trypsinization was stopped by addition of culture medium with 5% FBS. After centrifugation, the dissociated cells were resuspended in the same medium and subcultured into 75-cm^2 culture flasks at a ratio of 1:5 flasks.
(§2) The BC cells were seeded at the density of 1,000 cells per well (100 μL) into 96 well plate in DMEM/F-12 (1:1), supplemented with 5% (v/v) FCS and incubated overnight at 37° C. Test compounds are solubilized in dimethyl sulfoxide (DMSO), diluted in cell culture medium to a range of final assay concentrations of 1 nM to 10 μM, added to cells and incubated for 7 days at 37° C. The medium including the test compound are refreshed at days 3 and 5. The MTS assay are carried out by using the CellTiter 96® AQueous One Solution Cell Proliferation Assay kit following the manufacturer's instruction.

[2] = test system: MDA-MB-436; test: MTS anti-proliferative assay, MDA-MB-436; format: cell-based; details: Homo sapiens, 168 h, MDA-MB-436, TNBC, basal B, treatment for 7 days
Experimental: as §1
The media were changed every 2-days. When the cells grew to about 80% confluence, cells were washed twice with calcium- and magnesium-free phosphate-buffered saline (PBS, pH 7.4), and then trypsinized with 0.05% trypsin-5.3 mm EDTA. The trypsinization was stopped by addition of culture medium with 5% FBS.
as §2

## COc1cc(N2CCC(O)CC2)ccc1Nc1nc(Nc2ccccc2S(=O)(=O)C(C)C)c2cc[nH]c2n1 [Compound 1, 1-(4-((4-((2-(isopropylsulfonyl)phenyl)amino)-7H-pyrrolo[2,3-d]pyrimidin-2-yl)amino)-3-methoxyphenyl)piperidin-4-ol]
[1]
  IC50: 810 nM
[2]
  IC50: 900 nM
